Measurements as given in the supplement of paper PMC11451515.

System: SEM cells
Assay: cell viability relative to DMSO control; higher = less cytotoxic
Conditions: 48 h
Method in brief: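 Leukemia cells (NOMO1 or SEM, 500 cells/well; P12-Ichikawa, 1000 cells/well) were seeded in 5 μl in 1536-well plates after at least four passages of adaptation to each medium. They received library compounds in DMSO by pin dosing, 11 threefold points from 47 μM to 0.79 nM. Luminescence with CellTiter-Glo One was read after 48 h at 37°C. Viability is stated per plate relative to DMSO wells, with cell-free wells as background.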

[1] = HPLM + 10% dialyzed FBS, 0.000781 µM
[2] = HPLM + 10% dialyzed FBS, 0.00234 µM
[3] = HPLM + 10% dialyzed FBS, 0.00702 µM
[4] = HPLM + 10% dialyzed FBS, 0.0211 µM
[5] = HPLM + 10% dialyzed FBS, 0.0632 µM
[6] = HPLM + 10% dialyzed FBS, 0.19 µM
[7] = HPLM + 10% dialyzed FBS, 0.569 µM
[8] = HPLM + 10% dialyzed FBS, 1.71 µM
[9] = HPLM + 10% dialyzed FBS, 5.12 µM
[10] = HPLM + 10% dialyzed FBS, 15.4 µM
[11] = HPLM + 10% dialyzed FBS, 46.1 µM
[12] = RPMI 5 mM glucose + 10% FBS, 0.000781 µM
[13] = RPMI 5 mM glucose + 10% FBS, 0.00234 µM
[14] = RPMI 5 mM glucose + 10% FBS, 0.00702 µM
[15] = RPMI 5 mM glucose + 10% FBS, 0.0211 µM
[16] = RPMI 5 mM glucose + 10% FBS, 0.0632 µM
[17] = RPMI 5 mM glucose + 10% FBS, 0.19 µM
[18] = RPMI 5 mM glucose + 10% FBS, 0.569 µM
[19] = RPMI 5 mM glucose + 10% FBS, 1.71 µM
[20] = RPMI 5 mM glucose + 10% FBS, 5.12 µM
[21] = RPMI 5 mM glucose + 10% FBS, 15.4 µM
[22] = RPMI 5 mM glucose + 10% FBS, 46.1 µM
[23] = RPMI 5 mM glucose + 10% dialyzed FBS, 0.000781 µM
[24] = RPMI 5 mM glucose + 10% dialyzed FBS, 0.00234 µM
[25] = RPMI 5 mM glucose + 10% dialyzed FBS, 0.00702 µM
[26] = RPMI 5 mM glucose + 10% dialyzed FBS, 0.0211 µM
[27] = RPMI 5 mM glucose + 10% dialyzed FBS, 0.0632 µM
[28] = RPMI 5 mM glucose + 10% dialyzed FBS, 0.19 µM
[29] = RPMI 5 mM glucose + 10% dialyzed FBS, 0.569 µM
[30] = RPMI 5 mM glucose + 10% dialyzed FBS, 1.71 µM
[31] = RPMI 5 mM glucose + 10% dialyzed FBS, 5.12 µM
[32] = RPMI 5 mM glucose + 10% dialyzed FBS, 15.4 µM
[33] = RPMI 5 mM glucose + 10% dialyzed FBS, 46.1 µM

| SMILES | cell viability [1] | cell viability [2] | cell viability [3] | cell viability [4] | cell viability [5] | cell viability [6] | cell viability [7] | cell viability [8] | cell viability [9] | cell viability [10] | cell viability [11] | cell viability [12] | cell viability [13] | cell viability [14] | cell viability [15] | cell viability [16] | cell viability [17] | cell viability [18] | cell viability [19] | cell viability [20] | cell viability [21] | cell viability [22] | cell viability [23] | cell viability [24] | cell viability [25] | cell viability [26] | cell viability [27] | cell viability [28] | cell viability [29] | cell viability [30] | cell viability [31] | cell viability [32] | cell viability [33] |
| --- | --- | --- | --- | --- | --- | --- | --- | --- | --- | --- | --- | --- | --- | --- | --- | --- | --- | --- | --- | --- | --- | --- | --- | --- | --- | --- | --- | --- | --- | --- | --- | --- | --- |
| CN(C)CCCNC(=O)c1ccc(-c2cc(O)c3ncccc3c2)cc1 | 107% | 110% | 112% | 103% | 99.7% | 103% | 104% | 91.6% | 92.6% | 81.9% | 40.2% | 107% | 107% | 109% | 103% | 117% | 112% | 120% | 115% | 104% | 78.2% | 27.1% | 95.5% | 103% | 95.2% | 113% | 95.2% | 100% | 103% | 105% | 93.3% | 74.1% | 33% |
| COC(=O)[C@@H](N)CCCNC(=N)N[N+](=O)[O-] | 82% | 37.9% | 89.1% | 96.1% | 94.3% | 95.1% | 87.2% | 110% | 93.1% | 89.9% | 95.2% | 95.5% | 39.2% | 90.7% | 92.1% | 95.2% | 102% | 90.3% | 101% | 104% | 104% | 101% | 85.1% | 26.2% | 78% | 89.3% | 101% | 84.8% | 99% | 108% | 101% | 107% | 104% |
| NCC(=O)Nc1ccc(-n2nc(C(F)(F)F)cc2-c2ccc3c(ccc4ccccc43)c2)cc1 | 109% | 136% | 117% | 121% | 120% | 112% | 129% | 121% | 113% | 99.1% | 95% | 87.7% | 100% | 112% | 102% | 116% | 114% | 101% | 107% | 98.3% | 84.8% | 72.6% | 119% | 138% | 119% | 124% | 120% | 114% | 128% | 132% | 100% | 51.4% | 45.1% |
| COC1=CC=C(C=C1)C2CC(=N/N2C3=CC=C(C=C3)[S+](N)([O-])=O)\C4=CC=CC=C4 (centres undefined) | 83.3% | 91.2% | 91.4% | 104% | 110% | 69.2% | 86.3% | 51.3% | 30.9% | 4.3% | 2.47% | 104% | 86.1% | 107% | 104% | 107% | 43.4% | 72.9% | 37.8% | 14.8% | 2.74% | 1.62% | 87.3% | 74% | 84.3% | 95.4% | 100% | 60.1% | 63.3% | 45.9% | 19% | 2.63% | 2.05% |
| CCN(CC)CCN1C(=O)\C(=N/C2=CC=CC=C12)CC3=CC=C(OC)C=C3 | 68.2% | 67.5% | 87.2% | 76.3% | 85.3% | 80.3% | 99.1% | 83.6% | 75.2% | 86.8% | 85.4% | 82.7% | 93.1% | 97.8% | 78.5% | 93.8% | 105% | 101% | 106% | 91.9% | 92% | 107% | 78.2% | 89.4% | 87.1% | 89% | 94.3% | 97.1% | 112% | 96.6% | 93.3% | 88% | 102% |
| CNCC(O)C(O)C(O)C(O)CO.O=C(O)c1ccc(-c2cc3cccnc3c(-c3ccc4nonc4c3)n2)cc1 | 104% | 103% | 99.1% | 115% | 114% | 115% | 114% | 131% | 112% | 92.7% | 92% | 100% | 107% | 109% | 108% | 115% | 108% | 115% | 111% | 103% | 108% | 88.8% | 98% | 97.6% | 120% | 103% | 108% | 101% | 112% | 103% | 127% | 87.6% | 65.8% |
| CC(=O)O[C@@]12CO[C@@H]1C[C@H](O)[C@]3(C)[C@@H]2[C@H](OC(=O)C4=CC=CC=C4)[C@]5(O)C[C@H](OC(=O)C(O)[C@@H](NC(=O)OC(C)(C)C)C6=CC=CC=C6)C(=C(/[C@@H](O)C3=O)C5(C)C)/C (some centres undefined) | 23.5% | 25.1% | 25.4% | 26% | 26.5% | 27.2% | 26.1% | 23.3% | 22.7% | 18.6% | 5.16% | 13.7% | 22% | 21.2% | 18.1% | 20.1% | 20.7% | 18.1% | 16.7% | 12.1% | 9.57% | 4.28% | 23.4% | 21.1% | 23% | 21.2% | 21.4% | 19.5% | 18.9% | 16.7% | 16.5% | 10.5% | 2.56% |
| Cc1ncc([N+](=O)[O-])n1CCO | 100% | 94% | 104% | 104% | 112% | 105% | 103% | 111% | 118% | 100% | 108% | 104% | 118% | 103% | 111% | 118% | 109% | 109% | 117% | 121% | 105% | 104% | 107% | 109% | 123% | 122% | 114% | 146% | 127% | 115% | 122% | 124% | 130% |
